In patent publication US12495798B2, “Nicotinamide compound and herbicidal composition comprising compound” (KOREA RESEARCH INSTITUTE OF CHEMICAL TECHNOLOGY, priority 2019, dated 2025):

Key:
Assay type in all cases: in vivo
[1] = tested on: fall panicum; experiment: Herbicidal activity test against upland field weeds (foliar treatment test); conditions: Panicum dichotomiflorum, 50 g ai/ha, scale 0-100
How it was run: (§1)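 Weeds were raised from seed or rootstocks in horticultural soil in a greenhouse (30±5° C., 14/10 h light/dark), then foliage was hand-sprayed with compound at 50 or 75 g a.i./ha in 50% acetone with 0.1% Tween-20. Control was scored visually 0–100 against untreated plants after 14 days, or 21 if needed.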

[2] = tested on: cocklebur; experiment: as above; parameters: key to Foliar treatment herbicidal activity, Cocklebur: 0 (no control); 100 (complete control); conditions: 50 g ai/ha, scale 0-100; for pest or weed control at 50 g/ha: Xanthium strumarium
How it was run: as §1

[3] = tested on: barnyard grass; experiment: as above; parameters: key to Foliar treatment herbicidal activity, barnyard grass: 0 (no control); 100 (complete control); conditions: 50 g ai/ha, scale 0-100; for pest or weed control at 50 g/ha: Echinochloa crus-galli
How it was run: as §1

[4] = tested on: bindweed; experiment: Herbicidal activity test against upland field weeds (soil treatment test); parameters: key to Soil treatment herbicidal activity, Bindweed: 0 (no control); 100 (complete control); conditions: 50 g ai/ha, scale 0 (no control) to 100 (complete control)
How it was run: (§2)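 Pre-emergence test: seeds or rootstocks were sown in fertilized sandy loam, and the next day the soil surface was sprayed with compound at 50 or 75 g a.i./ha in 50% acetone/0.1% Tween-20. Plants were grown in a greenhouse (30±5 °C, 14/10 h light/dark), then visually scored 0–100 against untreated at 14 d (21 d if needed).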

[5] = tested on: quack grass; experiment: Herbicidal activity test against upland field weeds (foliar treatment test); parameters: key to Foliar treatment herbicidal activity, quack grass: 0 (no control); 100 (complete control); conditions: 50 g ai/ha, scale 0-100
How it was run: as §1

[6] = tested on: barnyard grass; experiment: Herbicidal activity test against upland field weeds (soil treatment test); parameters: key to Soil treatment herbicidal activity, barnyard grass: 0 (no control); 100 (complete control); conditions: 50 g ai/ha, scale 0 (no control) to 100 (complete control); for pest or weed control at 50 g/ha: Echinochloa crus-galli
How it was run: as §2

[7] = tested on: indian jointvetch; experiment: as above; parameters: key to Soil treatment herbicidal activity, Indian jointvetch: 0 (no control); 100 (complete control); conditions: 50 g ai/ha, scale 0 (no control) to 100 (complete control)
How it was run: as §2

[8] = tested on: rice; experiment: Phytotoxicity test for field crops (soil treatment test); parameters: key: 0 (no harm); 9 (complete withered)
How it was run: (§3)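 Visual injury grade 0–9 (0 no harm, 9 complete withered), relative to untreated control, read 10 and 20 days post-treatment. Compounds were sprayed onto soil one day after sowing at 19˜300 g a.i./ha in 33% acetone, 0.1% Tween-20, with plants then grown in a greenhouse at 30±5° C.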

[9] = tested on: corn; experiment: as above; parameters: key: 0 (no harm); 9 (complete withered)
How it was run: as §3

[10] = tested on: soybean; experiment: as above; parameters: key: 0 (no harm); 9 (complete withered)
How it was run: as §3

[11] = tested on: wheat; experiment: as above; parameters: key: 0 (no harm); 9 (complete withered)
How it was run: as §3

[12] = tested on: cotton; experiment: as above; parameters: key: 0 (no harm); 9 (complete withered)
How it was run: as §3

[13] = tested on: cocklebur; experiment: Herbicidal activity test against upland field weeds (soil treatment test); parameters: key to Soil treatment herbicidal activity, Cocklebur: 0 (no control); 100 (complete control); conditions: 50 g ai/ha, scale 0 (no control) to 100 (complete control); for pest or weed control at 50 g/ha: Xanthium strumarium
How it was run: as §2

[14] = tested on: crabgrass; experiment: as above; parameters: key to Soil treatment herbicidal activity, Crabgrass: 0 (no control); 100 (complete control); conditions: 50 g ai/ha, scale 0 (no control) to 100 (complete control); for pest or weed control at 50 g/ha: Digitaria sanguinalis
How it was run: as §2

[15] = 50 g ai/ha, Rice (10 days after treatment)
[16] = 50 g ai/ha, Rice (20 days after treatment)
[17] = 100 g ai/ha, Rice (10 days after treatment)
[18] = 100 g ai/ha, Rice (20 days after treatment)
[19] = 50 g ai/ha, Corn (10 days after treatment)
[20] = 50 g ai/ha, Corn (20 days after treatment)
[21] = 100 g ai/ha, Corn (10 days after treatment)
[22] = 100 g ai/ha, Corn (20 days after treatment)
[23] = 50 g ai/ha, Soybean (10 days after treatment)
[24] = 50 g ai/ha, Soybean (20 days after treatment)
[25] = 100 g ai/ha, Soybean (10 days after treatment)
[26] = 100 g ai/ha, Soybean (20 days after treatment)
[27] = 50 g ai/ha, Wheat (10 days after treatment)
[28] = 50 g ai/ha, Wheat (20 days after treatment)
[29] = 100 g ai/ha, Wheat (10 days after treatment)
[30] = 50 g ai/ha, Cotton (10 days after treatment)
[31] = 50 g ai/ha, Cotton (20 days after treatment)
[32] = 100 g ai/ha, Cotton (10 days after treatment)
[33] = 100 g ai/ha, Cotton (20 days after treatment)
[34] = 100 g ai/ha, Wheat (20 days after treatment)

| Structure (SMILES) | pest or weed control at 50 g/ha [1] [%] | Foliar treatment herbicidal activity, quack grass [5] | Soil treatment phytotoxicity, Rice [8, 15] | Soil treatment phytotoxicity, Rice [8, 16] | Soil treatment phytotoxicity, Rice [8, 17] | Soil treatment phytotoxicity, Rice [8, 18] | Soil treatment phytotoxicity, Corn [9, 19] | Soil treatment phytotoxicity, Corn [9, 20] | Soil treatment phytotoxicity, Corn [9, 21] | Soil treatment phytotoxicity, Corn [9, 22] | Soil treatment phytotoxicity, Soybean [10, 23] | Soil treatment phytotoxicity, Soybean [10, 24] | Soil treatment phytotoxicity, Soybean [10, 25] | Soil treatment phytotoxicity, Soybean [10, 26] | Soil treatment phytotoxicity, Wheat [11, 27] | Soil treatment phytotoxicity, Wheat [11, 28] | Soil treatment phytotoxicity, Wheat [11, 29] | Soil treatment phytotoxicity, Cotton [12, 30] | Soil treatment phytotoxicity, Cotton [12, 31] | Soil treatment phytotoxicity, Cotton [12, 32] | further results |
| --- | --- | --- | --- | --- | --- | --- | --- | --- | --- | --- | --- | --- | --- | --- | --- | --- | --- | --- | --- | --- | --- |
| Cn1nnc(COCc2nc(C(F)F)ccc2C(=O)Nc2nnnn2C)n1 [Compound No. 2-84, 6-(difluoromethyl)-N-(1-methyl-1H-tetrazol-5-yl)-2-(((2-methyl-2H-tetrazol-5-yl)methoxy)methyl)nicotinamide] | 90 | 0 | 5 | 3 | 6 | 7 | 0 | 0 | 1 | 0 | 0 | 0 | 0 | 0 | 0 | 0 | 0 | 0 | 6 | 3 | pest or weed control at 50 g/ha [2]: 95%; pest or weed control at 50 g/ha [3]: 95%; pest or weed control at 50 g/ha [4]: 40%; pest or weed control at 50 g/ha [6]: 70%; pest or weed control at 50 g/ha [7]: 98%; Soil treatment phytotoxicity, Cotton [12, 33]: 7; Soil treatment herbicidal activity, Cocklebur [13]: 0; pest or weed control at 50 g/ha [14]: 80% |
| Cn1nnc(COCc2nc(C(F)(F)Cl)ccc2C(=O)Nc2nnnn2C)n1 [Compound No. 2-78, 6-(chlorodifluoromethyl)-N-(1-methyl-1H-tetrazol-5-yl)-2-(((2-methyl-2H-tetrazol-5-yl)methoxy)methyl)nicotinamide] | 70 | 0 | 6 | 6 | 9 | 9 | 0 | 0 | 1 | 0 | 0 | 0 | 0 | 0 | 0 | 0 | 0 | 2 | 6.5 | 3 | pest or weed control at 50 g/ha [2]: 60%; pest or weed control at 50 g/ha [3]: 70%; pest or weed control at 50 g/ha [4]: 40%; Soil treatment herbicidal activity, barnyard grass [6]: 100; pest or weed control at 50 g/ha [7]: 95%; Soil treatment phytotoxicity, Wheat [11, 34]: 0; Soil treatment phytotoxicity, Cotton [12, 33]: 9; pest or weed control at 50 g/ha [13]: 70%; Soil treatment herbicidal activity, Crabgrass [14]: 100 |
| Cn1nnc(COCc2nc(C(F)(F)F)ccc2C(=O)Nc2nnnn2C)n1 [Compound No. 2-59, N-(1-methyl-1H-tetrazol-5-yl)-2-(((2-methyl-2H-tetrazol-5-yl)methoxy)methyl)-6-(trifluoromethyl)nicotinamide] | 95 | 0 | 6 | 8 | 8 | 8 | 0 | 0 | 0 | 0 | 2 | 5 | 3 | 6 | 0 | 0 | 0 | 1 | 6 | 3 | pest or weed control at 50 g/ha [2]: 98%; Foliar treatment herbicidal activity, barnyard grass [3]: 100; pest or weed control at 50 g/ha [4]: 90%; Soil treatment herbicidal activity, barnyard grass [6]: 100; Soil treatment herbicidal activity, Indian jointvetch [7]: 100; Soil treatment phytotoxicity, Wheat [11, 34]: 0; Soil treatment phytotoxicity, Cotton [12, 33]: 9; pest or weed control at 50 g/ha [13]: 20%; pest or weed control at 50 g/ha [14]: 98% |
| Cn1nnnc1COc1nc(C(F)(F)F)ccc1C(=O)Nc1nnnn1C [Compound No. 1-1, N-(1-methyl-1H-tetrazol-5-yl)-2-((1-methyl-1H-tetrazol-5-yl)methoxy)-6-(trifluoromethyl)nicotinamide] | 95 | 0 | 1 | 7 | 3 | 9 | 0 | 0 | 0 | 0 | 3 | 5 | 3 | 7 | 0 | 0 | 0 | 2 | 6 | 2 | Foliar treatment herbicidal activity, Cocklebur [2]: 100; pest or weed control at 50 g/ha [3]: 98%; Soil treatment herbicidal activity, Bindweed [4]: 0; pest or weed control at 50 g/ha [6]: 95%; Soil treatment herbicidal activity, Indian jointvetch [7]: 0; Soil treatment phytotoxicity, Wheat [11, 34]: 1; Soil treatment phytotoxicity, Cotton [12, 33]: 7; Soil treatment herbicidal activity, Cocklebur [13]: 0; pest or weed control at 50 g/ha [14]: 98% |
